From patent US8703801B2, “Pyridinone hydroxycyclopentyl carboxamides: HIV integrase inhibitors with therapeutic applications” (University of Georgia Research Foundation, Inc., priority 2009, dated 2014) come the findings set out here.

The assay has as its system HIV. Nature of the assay: anti-HIV activity in cell culture. The class given is cell-based. The following applies: Human immunodeficiency virus 1, in vitro.

As a reminder, the EC50 is the concentration at which the effect is half-maximal. `O=C(N[C@H]1CCC[C@@H]1O)/C(O)=C/C(=O)c1cc(Cc2ccc(F)cc2F)cn(Cc2ccccc2F)c1=O` [FIG. 1a] gave a half-maximal effective concentration (EC50) of 25 nM.
On to `O=C(NN1CCCC1=O)/C(O)=C/C(=O)c1cc(Cc2c(F)cccc2F)cn(Cc2ccccc2F)c1=O` [FIG. 1b], for which it took 10 nM to reach a half-maximal effect (EC50).
